In US20150344535A1, “NEUROTROPHIN-TYROSINE KINASE RECEPTOR SIGNALING” (THE UNIVERSITY OF QUEENSLAND, priority 2012, published 2015):

Key:
PC12 cells [1] = experiment: PC12 cell neurite outgrowth in response to NGF; type: cell-based
Description: To assess the effect of p75^NTR constructs (FIG. 2) or c29 peptide on TrkA-mediated neuritogenesis, transfected PC12 cells were grown in the presence of 100 ng/ml NGF for 3 days, with fresh medium and NGF treatments added on day 2. Cells were then imaged live on an Olympus (IX81) microscope fitted with a CO2 atmospheric chamber, using analySIS software. Four random images of 80-100 cells were taken for each treatment condition and images were determined by measuring polygon neurite length of all cells in each image. Data analysis was performed using Graphpad PRISM.
Once PC12 cells are fully differentiated, they become dependent on NGF for survival (Greene, 1978), but can survive if grown in the presence of lower concentrations of NGF (Greene and Tischler, 1976). To determine if c29 could potentiate TrkA-mediated signals, PC12 cells were cultured in the presence of NGF concentrations ranging from 1-100 ng/ml for 5 days, following serum starvation and pre-incubation with c29, scrambled control peptide or no peptide (FIG. 5A). […] Peptides (1 μM) were added to the cultures every 48 hours at the time of NGF addition and medium exchange.

PC12 cells [2] = experiment: NGF-FITC binding by flow cytometry, PC12 cells; conditions: for % of cell population with FITC above background / Maximal fluorescence per cell of the population / Mean fluorescence per FITC-positive cell / Median population fluorescence: NGF-FITC
Description: The NGF was conjugated to FITC by standard methods and detailed flow cytometry acquisition and analysis. For NGF-FITC conjugation 400 μg βNGF in 200 μl pH 8.5 NaHCO3 buffer was mixed with 5-10 μl of 10 mg/ml FITC in 100 μl DMSO for 10 hours at 4° C. on an orbital shaker set to 100 rpm. The excess FITC was removed by dialysis against 3 changes of 5 L of 10 mM Tris, 150 mM NaCl, 0.2% acetic acid, pH 8.2 for 24 hours at 4° C. Conjugate F/P characterization was determined by measuring absorbance at 280 nm and 495 nm according to manufacturer's instructions. Biological activity of the NGF-FITC conjugate was tested by performing PC12 cell neurite outgrowth assays unlabelled NGF, and comparing the levels of neuritogenesis. NGF-FITC conjugates were used within 4 weeks of synthesis.
For the flow cytometry NGF binding assays, fluorescence cell parameters of at least 20,000 events for PC12 cells and 100,000 events for HEK293 cells were acquired by flow cytometry list mode and measurements were performed on a single cell basis (with compensation for double event counting). Dead cells and debris were gated out of the analysis on the basis of forward scatter fluorescence, and mean, median and maximal fluorescence values of the gated cell populations were analysed using FACS Diva Software (Becton-Dickinson Biosciences) and FACS Express Software (Becton-Dickinson Biosciences).
Background fluorescence of HEK293 cells was non-transfected cells (±c29 or scrambled peptide treatment) treated with 26 nM NGF-FITC. For PC12 cells, the control population was cells that had not been treated with NGF-FITC. Analysis of real-time NGF-FITC receptor binding experiments was performed on 550,000-600,000 cells at 4° C. in serum free NB medium and binding kinetics were calculated from raw data files compressed to 50,000 binding events using FlowJo and MatLab Software. Data was plotted with the use of GraphPad Prism.
Only NGF-FITC preparations that promoted equivalent neurite outgrowth of PC12 cells to that of unlabelled NGF were used in binding experiments. To investigate NGF binding, PC12 or transfected HEK293 cells were serum starved for 4 hours, harvested, washed with Dulbecco's Modified Eagle Medium (DMEM), and counted. When used, c29 or scrambled peptide were added to cultures for the third hour of the serum starvation procedure. 1×10^7 cells/ml suspended in 500 μl of serum-free DMEM were incubated with 26 nM NGF-FITC on ice for 60 minutes before analysis. For binding competition assays, following 1 hour in NGF-FITC, cells were washed with ice-cold PBS containing 0.1% normal bovine serum and incubated on ice with unlabeled NGF at concentrations ranging from 100 pM to 10 μM for 30 minutes, then washed twice in PBS before being analysed on a BD Flow Cytometer FACS Scan (Becton-Dickinson).
First, to determine the concentration of c29 required to modulate NGF binding, c29 levels were titrated with a fixed concentration of NGF-FITC.

TrkA and p75^NTR = experiment: Surface biotinylation of receptors in PC12 cells; type: cell-based; conditions: 1 μM peptide, with or without NGF
Description: FIG. 10: The juxtamembrane domain of p75^NTR increases the association of NGF to cells expressing TrkA. (A and B) Dose response graphs of the proportion (%) of PC12 cells with fluorescence intensity above background following treatment with 26 […] NGFFITC, a FITC-conjugated antibody to the extracellular domain of p75^NTR (A), or an antibody to TrkA (detected using an anti-rabbit Alexa 594 secondary) (B), after pretreatment with increasing concentrations of […] peptide. (n=3 experiments per data point; mean±SEM *p<0.05, **p<0.01) (C) Representative western blots (WB) of TrkA and p75^NTR present in streptavidin precipitates (surface biotin), or lysate flow through of PC12 cells that had been treated for 1 hour with NGF and/or c29 and scrambled (SC) peptide, prior to the surface proteins being labelled with biotin for 90 minutes on ice.

In the case of “KRWNSCKQNKQGANSRPVNQTPPPEGEKL (c29- Fragment of p75ICD) [29 amino acid peptide of the p75NTR juxtamembrane Chopper domain; delivered to cells linked to PTD4 or disulfide-linked carrier]”, the “neurite outgrowth (length)” value (PC12 cells [1]; 1 ng/ml NGF, day 5, peptide 1 μM) is reported as 20 μm, the “neurite length vs scrambled peptide or NGF alone” value (PC12 cells [1]; 1 ng/ml and 10 ng/ml NGF, day 5, peptide 1 μM) is reported as “significantly longer neurites” and the median neurite length (PC12 cells [1]; 10 ng/ml NGF, day 5, peptide 1 μM) is reported as 60 μm. The median neurite outgrowth (PC12 cells [1]; 100 ng/ml NGF, day 5, peptide 1 μM, vs untreated cultures) was “no difference”, the neurite growth (PC12 cells [1]; fragments incubated with PC12 cells and NGF, FIG. 16) was “stimulated neurite growth” and the “% of cell population with FITC above background” value (PC12 cells [2]; c.f. PC12) was 115.7 ± 19.7%. For the same sequence, the “Maximal fluorescence per cell of the population” value (PC12 cells [2]; c.f. PC12) was 123.6 ± 17.3%, the “Mean fluorescence per FITC-positive cell” value (PC12 cells [2]; c.f. PC12) was 126.3 ± 4.8% and the Median population fluorescence (PC12 cells [2]; c.f. PC12) was 127.4 ± 8.1%. The “% of cell population with FITC above background” value (PC12 cells [2]; c.f. PC12 + SC) was 115.3 ± 13.4%, the “Maximal fluorescence per cell of the population” value (PC12 cells [2]; c.f. PC12 + SC) was 123.1 ± 5.2% and the “Mean fluorescence per FITC-positive cell” value (PC12 cells [2]; c.f. PC12 + SC) was 121.4 ± 5.5%. For the same sequence, the Median population fluorescence (PC12 cells [2]; c.f. PC12 + SC) was 122.5 ± 8.4%, the “all measured fluorescence parameters of the FITC-positive population” value (PC12 cells [2]; PC12 cells, compared to control or scrambled peptide-treated cells) was “increased” and the “c29 concentration at which an increase in median fluorescence was observed” value (PC12 cells [2]; fixed concentration of NGF-FITC, FIG. 10A) was 1 pM. For the same sequence, the “surface or total receptor levels of TrkA and p75^NTR” value (TrkA and p75^NTR) was “no significant difference”.
